Measured values as given in publication PMC6826694, “Validation of Hepatocellular Carcinoma Experimental Models for TGF-β Promoting Tumor Progression” (Cancers, 2019).

Tests used:
CD133 and Vimentin = test system: CD133 and Vimentin; set-up: method as in PMID 29805610; details: ref [23]; cited from earlier work
TGF-β1 SMAD2/3 pathway = test system: TGF-β1 SMAD2/3 pathway; set-up: method as in PMID 29957876; details: CC14-induced mice; ref [20]; cited from earlier work
[1] = test system: TGF-β linked EMT transition; details: female BALB/C nude mice, subcutaneous Hg2 cells; ref [44]; cited from earlier work
SK-HEP1-Luc cells = test system: SK-HEP1-Luc cells; set-up: method as in PMID 26549110; details: oral administration, female BALB/C nu/nu, orthotopic SK-HEP1-Luc; ref [45]; cited from earlier work
HepG2 cells = test system: HepG2 cells; set-up: method as in PMID 23826206; details: exogenous TGF-β1 in vitro, ref [22]; cited from earlier work
[2] = test system: pancreatic ductal adenocarcinoma; set-up: method as in PMID 30866547; details: ref [17]; cited from earlier work
[3] = Appearance / solubility of Galunisertib in the dosing formulations; assay type: physicochemical
Procedure: (§1) Firstly, we quantified the concentration of LY2157299 in plasma of female CD-1 mice by a liquid chromatographic method, in order to define the concentration for the therapeutic window. Therefore, the drug was administered orally and given in two formulations. Group 1 (15 mice) received Galunisertib as suspension (75 mg/kg) prepared by mixing Galunisertib with 1% Carboxymethylcellulose, 0.5% Sodium Lauryl Sulfate, 0.085% Povidone, followed by sonication in a water bath sonicator or with a probe sonicator until a fine suspension with a final concentration of 7.5 mg/mL was achieved. Group 2 (15 mice) received Galunisertib as solution (150 mg/kg solution) prepared by dissolving the drug in 10% of dimethylsulfoxide (DMSO), and then adding sequentially polyethylene glycol (PEG)400 (30%), ethanol (EtOH) (10%), saline (30%) and HCl 0.01 M (20%) at a final pH of ~6 under mixing to a final concentration of 15 mg/mL.

[4] = test system: invasive HCC cells (HLE and HLF); set-up: method as in PMID 29515105, PMID 26057634; details: in vitro and in ex vivo human HCC samples; ref [24, 25]; cited from earlier work
SKIL and PMEPA1 mRNA = details: HCC tumor tissues; ref [26]; cited from earlier work
[5] = Plasma pharmacokinetics of Galunisertib after single oral dose (HPLC-FL); assay type: in vivo, mouse; details: for AUC(0-t) / Cmax / Tmax / half-life / k el: mouse, single oral dose, female CD-1 mice, plasma
Procedure: as §1
The volume of administration was 10mL/kg for single treatment. Physical appearance, behavior as well as general and local clinical signs of the mice were monitored throughout the experiment. […] At predefined time points (0.5, 1, 2, 4, 8 h after administration), the animals were deeply anesthetized by isoflurane followed by a complete retro-orbital bleeding. The blood was collected in heparinized tubes and centrifuged at 6000× g for 5–10 minutes within 15 minutes after collection. The plasma was transferred to tubes and stored at −20 °C until analysis.
To quantify the concentration of Galunisertib, plasma was measured by a HPLC/Fluorimetric (HPLC-FL) method.
The pharmacokinetic parameters (Kelim, T1/2, and Tmax.) represented as mean ± SD of three animals/time for both Galunisertib formulations were determined using the MKModel by Nick Holford software Version 4, (Biosoft, Ferguson, MO, USA) or equivalent pharmacokinetic programs (Table 4).

[6] = test system: TGF-β1, TGF-β RI and TGF-β RII mRNA; assay: qRT-PCR mRNA expression in tumor tissues of the orthotopic model; assay type: in vivo, mouse; details: for mRNA expression of TGF-βI, TGF-β RI and TGF-β RII levels vs controls: tumor tissues, qRT-PCR
Description: No difference was found comparing the two Galunisertib formulations.

HepG2-Luc cells = assay: Orthotopic HCC model, intrahepatic HepG2-Luc cells in NOG mice, tumor growth by IVIS bioluminescence; assay type: in vivo, mouse; details: for Bioluminescence (average radiance, IVIS) vs vehicle (GP1): NOG mice, HepG2-Luc
Procedure: To evaluate in vivo the effect of Galunisertib (LY2157299) on tumor growth rate we used an orthotopic model: HCC was induced by intrahepatic injections of 1 × 10^6 HepG2-Luc cells in 7–8 weeks old, female NOG mice. The inoculated animals presented a clear engraftment of the liver cancer. The tumor growth was monitored weekly with IVIS Spectrum (PerkinElmer) through intraperitoneal administration of D-Luciferin (Sigma, 150 mg/10 mL/kg) until the end of the experiment.
Two weeks after the injection of HepG2-Luc cells, 45 mice were selected based on the bioluminescence signal and randomized into three groups of 15 animals. The first group (control group) was treated with 10 mL/kg of a […] vehicle solution (10% DMSO, 30% PEG400, 10% EtOH, 30% saline solution, 20% HCl 0.01 M, final pH 6.0). The second group (GP2) received 10 mL/kg Galunisertib solution via gastric probe (OS) and in the third group of mice (GP3) the drug was administered intravenously (IV) with 5 mL/kg Galunisertib encapsulated in polymeric nanocapsules. This nanoencapsulation was used to optimize the formulation in order to maximize therapeutic efficiency and minimize systemic toxicity. The nanocapsules were prepared from biocompatible and biodegradable polymers as described previously.
After sacrificing the animals, a complete necropsy was performed and documented by photos. Before sacrificing the animals, they were imaged by IVIS Spectrum to identify bioluminescent tissues for explantation.
Figure 4 Treatment of NOD/Shi-Scid/IL-2Rγ^null […] (NOG) mice with luciferin-labeled hepatocellular carcinoma (HCC) with vehicle or two Galunisertib preparations. (A). Bioluminescence images of NOG mice prior injected intrahepatically with HepG2-Luc cells at Day 23 and 44 after vehicle injection (GP1), or Galunisertib administration via gavage (GP2) or intravenous route (GP3). (B) Average Radiance (IVIS) versus time after tumor inoculation. Data were averaged over the animals which reached the end of experiment (GP1: n = 15; GP2: n = 14; GP3: n = 10).

CD44 and THY1 = test system: CD44 and THY1; set-up: method as in PMID 29515105, PMID 26057634; details: HLE and HLF cells in vitro; ref [24, 25]; cited from earlier work

Question: What does the source list for NC(=O)c1ccc(-c2nc(-c3ccc4c(c3)OCO4)c(-c3ccccn3)[nH]2)cc1 [SB431542]?
Answer: Expression of CD133 and Vimentin (CD133 and Vimentin): upregulated; Effect on liver fibrosis and TGF-β1 SMAD2/3 (TGF-β1 SMAD2/3 pathway): significantly attenuated

Question: Which “Effect on TGF-β linked EMT transition” value [1] does the source give for C[S+]([O-])CCCCN=C=S (stereo not shown) [Sulforaphane] here?
Answer: Its value is “Sulforaphane inhibits TGF-β linked EMT transition”.

Question: Which “Effect on tumor growth” value (SK-HEP1-Luc cells) does the source give for Cc1cccc(-c2[nH]c(CNc3ccccc3F)nc2-c2ccc3ncnn3c2)n1 [EW-7197] here?
Answer: The value was “ALK 5 inhibitor interferes with tumor growth”.

Question: With Cc1cccc(-c2nn3c(c2-c2ccnc4ccc(C(N)=O)cc24)CCC3)n1 [Galunisertib] as the compound, how does the “Effect on TGF-β1-induced changes (flat, larger cells; reduced E-cadherin in cell–cell contact)” value (HepG2 cells) read?
Answer: Its value is “reversed”.

Question: What about the “Effect on mast cell-mediated resistance to GEM/NAB (reduced apoptosis, TGF-β signaling, invasion)” value [2] of the same compound?
Answer: The value was “restored”.

Question: What about the “Appearance / solubility in formulation” value ([3]; new formulation, 150 mg/kg solution: 10% DMSO, 30% PEG400, 10% EtOH, 30% saline, 20% HCl 0.01 M, pH ~6, 15 mg/mL) of the same compound?
Answer: The value was “completely clear solution”.

Question: And the “Appearance / solubility in formulation” value ([3]; old formulation (75 mg/kg): 1% Carboxymethylcellulose, 0.5% Sodium Lauryl Sulfate, 0.085% Povidone, 7.5 mg/mL)?
Answer: Its value is “only moderately soluble”.

Question: What about the “Colony formation, liver spheroids and invasive growth capacity” value [4] of the same compound?
Answer: Its value is “decrease”.

Question: And the “SKIL and PMEPA1 mRNA expression” value (SKIL and PMEPA1 mRNA)?
Answer: The value was “strongly down-regulated”.

Question: And the “Cmax and AUClast higher than the 75 mg/kg suspension” value ([5]; 150 mg/kg solution vs 75 mg/kg suspension, considering the dose correcting factor)?
Answer: The value was 2.5 fold.

Question: What about the AUC(0-t) ([5]; Solution (150 mg/kg)) of the same compound?
Answer: The AUC(0-t) was 15500 ng·h/mL.

Question: And the Cmax ([5]; Solution (150 mg/kg))?
Answer: Its Cmax is 19000 ng/mL.

Question: What about the Tmax ([5]; Solution (150 mg/kg)) of the same compound?
Answer: The Tmax was 30 min.

Question: What about the half-life ([5]; Solution (150 mg/kg)) of the same compound?
Answer: Its half-life is 103 min.

Question: And the k el ([5]; Solution (150 mg/kg))?
Answer: Its k el is 0.000164 s⁻¹.

Question: What about the AUC(0-t) ([5]; Suspension (75mg/kg)) of the same compound?
Answer: The AUC(0-t) was 3110 ng·h/mL.

Question: What about the Cmax ([5]; Suspension (75mg/kg)) of the same compound?
Answer: The Cmax was 3330 ng/mL.

Question: What about the Tmax ([5]; Suspension (75mg/kg)) of the same compound?
Answer: Its Tmax is 30 min.

Question: What about the half-life ([5]; Suspension (75mg/kg)) of the same compound?
Answer: Its half-life is 84 min.

Question: And the k el ([5]; Suspension (75mg/kg))?
Answer: The k el was 0.000136 s⁻¹.

Question: And the “mRNA level of the drug target compared to controls treated with vehicle” value ([6]; orthotopic HepG2-Luc model, NOG mice)?
Answer: The value was “statistically significant reduction (p = 0.03)”.

Question: What about the “mRNA expression of TGF-βI, TGF-β RI and TGF-β RII levels vs controls” value ([6]; mice treated with Galunisertib solution) of the same compound?
Answer: Its value is “significant (p < 0.05) down-regulation”.

Question: And the “mRNA expression of TGF-βI, TGF-β RI and TGF-β RII levels vs controls” value ([6]; mice treated with encapsulated Galunisertib)?
Answer: Its value is “significant (p < 0.05) down-regulation”.

Question: What about the “Bioluminescence (average radiance, IVIS) vs vehicle (GP1)” value (HepG2-Luc cells; GP2 (LY × OS): 10 mL/kg Galunisertib solution via gastric probe) of the same compound?
Answer: The value was “no significant difference in bioluminescence”.

Question: And the “Bioluminescence (average radiance, IVIS) vs vehicle (GP1)” value (HepG2-Luc cells; GP3 (LY × IV): 5 mL/kg Galunisertib encapsulated in polymeric nanocapsules, intravenous)?
Answer: Its value is “no significant difference in bioluminescence”.

Question: What about the “Effect on tumor regression or prevention of metastasis” value (HepG2-Luc cells; treated groups (GP2 gavage, GP3 intravenous) vs control, treatment period Day 16–Day 44) of the same compound?
Answer: Its value is “no effect on tumor regression or prevention of metastasis”.

Question: And the “Expression of CD44 and THY1” value (CD44 and THY1)?
Answer: The value was “reducing the expression”.
